Experimental data reported in patent US20190070128A1, “USE OF CANNABIDIVARIN IN THE TREATMENT OF AUTISM SPECTRUM DISORDER, ASSOCIATED DISORDERS AND SCHIZOPHRENIA” (GW Research Limited, priority 2016, published 2019).

What was measured:
VPA-exposed rats [1] = test: locomotor activity and repetitive behaviours, prenatal VPA model; format: in vivo, rat
Procedure: (§1) Pregnant Sprague-Dawley rats (Charles River, Calco, Italy), received a single intraperitoneal injection of 500 mg/kg sodium valproate on the 12.5 day after conception, and control females were injected with physiological saline at the same time. Sodium valproate (Sigma Aldrich, Milan, IT) was dissolved in saline at a concentration of 250 mg/ml.
CBDV was dissolved in ethanol, cremophor and saline (1:1:18). Symptomatic treatment with CBDV at doses of 0.2, 2, 20, and 100 mg/kg/day i.p. was performed starting from PND 34 (early adolescence) till 56 (early adulthood), both in male and female offspring of dams injected with VPA 500 mg/kg (or vehicle) on day 12.5 after conception. At PND 56, a series of behavioural tests was performed in order to assess the effect of chronic CBDV on sociability, social novelty, short-term memory, locomotion and stereotyped/repetitive behaviours.
Locomotor activity and repetitive behaviours: Locomotor activity was recorded in an activity cage for 20 minutes with the aid of Anymaze program (Ugo Basile, Italy). In this period, repetitive behaviours (self-grooming and digging) were measured by an observer blind to the treatment group.

VPA-exposed rats [2] = test: short-term memory, novel object recognition test, prenatal VPA model; format: in vivo, rat
Procedure: as §1
CBDV was dissolved in ethanol, cremophor and saline (1:1:18). Symptomatic treatment with CBDV at doses of 0.2, 2, 20, and 100 mg/kg/day i.p. was performed starting from PND 34 (early adolescence) till 56 (early adulthood), both in male and female offspring of dams injected with VPA 500 mg/kg (or vehicle) on day 12.5 after conception. […]
Short-term memory: The experimental apparatus used for the object recognition test was an open-field box (43×43×32 cm) made of Plexiglas, placed in a dimly illuminated room. The experiment was performed and analysed as previously described (Zamberletti et al, 2014). […]
Each animal was placed in the arena and allowed to explore two identical previously unseen objects for 5 minutes (familiarization phase). […] During the test phase the time spent exploring the familiar object (Ef) and the new object (En) was videotaped and recorded separately by two observers blind to the treatment groups and the discrimination index was calculated as follows: [(En−Ef)/(En+Ef)]×100.

Fmr1 KO mice = test: novel object recognition task in Fmr1 KO mice; format: in vivo, mouse; conditions: for discrimination index level: chronic
Procedure: Fmr1 KO mice and wild type mice were obtained and housed four per cage in a temperature of 21° C.±1° C. and humidity of 55%±10% controlled environment. Food and water were available ad libitum. All experiments were performed during the light phase of a 12 hour light/dark cycle (08:00 to 20:00). Animals were handled for one week before the start of experiments. All behavioural tests were performed by researchers blind to the different experimental groups.
On day one mice were habituated for 10 minutes to the empty V-maze in which the task was to be performed. On the second day the mice went back to the maze for 10 minutes which contained two identical objects at the end of each corridor in the V-maze.
The following day the mice were placed again in the same maze for a further 10 minutes but one of the familiar objects was replaced for a novel object. The total time spent exploring the novel and familiar object was recorded. A discrimination index was calculated as the difference between the time spent exploring the novel and familiar object divided by the total time exploring the two objects. A high discrimination index (0.3-0.5) is considered to reflect memory retention for the familiar object.
Adult mice (10-15 weeks old) were treated either acutely with one dose of CBDV on […] or were treated once daily with CBDV for 7 consecutive days. Mice were evaluated in the novel object recognition task after the first and sixth day of CBDV administration. Doses of CBDV used were 2, 10, 20, 100 and 200 mg/kg.

MeCP2 KO mice = test: survival of MeCP2 KO and WT mice; format: in vivo, mouse; conditions: for survival rate: vehicle 25%
Procedure: CBDV was administered daily at the dose of 2, 20 and 200 mg/kg i.p. starting from PND 28 and the following signs were scored every other day: hindlimb clasping (indication of motor imbalance), tremor, gait (measure of coordination), breathing, mobility and general condition.
The CBDV was dissolved in ethanol, cremophor and saline (1:1:18).
Starting from PND 28, mice received a daily intraperitoneal injection of CBDV (or vehicle) at the dose of 2, 20 and 200 mg/kg. Animals were then scored every other day to evaluate the effect of CBDV treatment on motor symptoms (hindlimb clasping, gait, mobility) as well as neurological signs and general conditions (breathing abnormalities, tremors and general condition) present in MeCP2 knockout (KO) mice.

PCP-treated rats = test: novel object recognition test in sub-chronic PCP treated rats; format: in vivo, rat
Procedure: Female hooded-Lister rats were used for this experiment. Rats were housed in groups of 5 under standard laboratory conditions under a 12 hr light: dark cycle, lights on at 0700 hr. Testing was carried out in the light phase.
Rats were randomly assigned to two treatment groups and treated with vehicle, n=20 (distilled water, i.p.) or Phencyclidine hydrochloride (PCP), n=100 (2 mg/kg, i.p. twice daily for 7-days). PCP was dissolved in distilled water. This was followed by a 7-day wash out period before the rats were tested following acute treatment with CBDV, risperidone or vehicle.
Risperidone (0.1 mg/kg) was dissolved in a minimum volume of acetic acid, made up to volume with distilled water and pH adjusted to 6 with 0.1M NaOH and administered via the i.p. route in a volume of 1 ml/kg, 60 min prior to testing.
CBDV at 2, 10 or 20 mg/kg was dissolved in 2:1:17 (Ethanol:Cremofor:Saline 0.9%) and administered via the i.p. route in a volume of 5 ml/kg, 60 min prior to testing.
Rats were allowed to habituate to the empty test box and the behavioural test room environment for 1 h on day 1. Prior to behavioural testing on day 2 rats are given a further 3 min habituation.
Following the 3 min habituation period, the rats are given two 3 min trials (T1 and T2) which are separated by a 1 min inter-trial interval in the home cage during which the objects are changed. Behaviour in all trials was recorded on video for subsequent blind scoring.
In this trial, the animals are allowed to explore two identical objects (A1 and A2) for 3 min.
In this trial, the animals explore a familiar object (A) from T1 and a novel object (B) for 3 min. The familiar object presented during T2 is a duplicate of the object presented in T1 in order to avoid any olfactory trails.
The object exploration is defined by animals licking, sniffing or touching the object with the forepaws whilst sniffing, but not leaning against, turning around, standing or sitting on the object. The exploration time (s) of each object (A, B, familiar and novel) in each trial are recorded using two stopwatches and the following factors are calculated: • Total exploration time of both objects in the acquisition trial (s). • Total exploration time of both objects in the retention trial (s). • Habituation of exploratory activity includes the exploration time, as measured by the number of lines crossed, for both the trials. • Discrimination index (DI), which is calculated as shown below: […]

C=C(C)[C@@H]1CCC(C)=C[C@H]1c1c(O)cc(CCC)cc1O [CBDV, Cannabidivarin]
time spent in compulsive self-grooming (VPA-exposed rats [1]; females, 2 and 100 mg/kg): significantly normalize | time spent in compulsive self-grooming (VPA-exposed rats [1]; males, 20 mg/kg): significantly normalize | locomotion increased by VPA (VPA-exposed rats [1]; males, 2, 20 and 100 mg/kg): normalize | short-term memory deficit (discrimination index) (VPA-exposed rats [2]; male and female VPA rats, 2, 20 and 100 mg/kg): completely and significantly reversed | recognition memory per se (VPA-exposed rats [2]; vehicle-treated (non VPA) rats): without affecting | increase of discrimination index over vehicle treated mice (Fmr1 KO mice; acute treatment, 2 mg/kg): not significant | discrimination index (Fmr1 KO mice; acute treatment, any of the doses): no effect | discrimination index over vehicle treated knockout mice (Fmr1 KO mice; chronic (once daily for 7 days), 20 and 100 mg/kg): statistically significant increase | discrimination index level (Fmr1 KO mice; 20 mg/kg): over 0.3 | discrimination index level (Fmr1 KO mice; 100 mg/kg): over 0.3 | survival rate (MeCP2 KO mice; MeCP2 KO mice, 2 mg/kg): 62.5% | survival rate (MeCP2 KO mice; MeCP2 KO mice, 20 mg/kg): 62.5% | survival rate (MeCP2 KO mice; MeCP2 KO mice, 200 mg/kg): 75% | survival measured at PND 67 (MeCP2 KO mice; MeCP2 KO mice, all three doses (2, 20, 200 mg/kg)): increase survival | lethality (MeCP2 KO mice; WT mice treated with CBDV): No lethality | discrimination index (DI) (PCP-treated rats; PCP rats, 10 and 20 mg/kg): statistically significant increase | preference between two identical objects, Trial 1 (acquisition) (PCP-treated rats; PCP rats, CBDV 2, 10 or 20 mg/kg i.p., risperidone 0.1 mg/kg i.p., 60 min prior to testing): no real preference | cognitive dysfunction (discrimination between familiar and novel objects, Trial 2) (PCP-treated rats; PCP treated rats, CBDV 10 and 20 mg/kg i.p.): reverse
